Measurements: ChEMBL document CHEMBL3044789, “Comparing weed and crop seedling response to pre-emergence pendimethalin application in Corchorus olitorius and Abelmoschus esculentus” (Crop Prot, 2006)

How the values were obtained:
[1] = system: Euphorbia heterophylla; assay: Herbicidal activity against Euphorbia heterophylla in Abelmoschus esculentus plots assessed as weed cover at 1.32 kg a.i/ha after 4 weeks (reference value: 22.6 +/- 0.49 %); assay type: functional
[2] = system: Talinum fruticosum; assay: Herbicidal activity against Talinum fruticosum in Abelmoschus esculentus plots assessed as weed cover at 0.99 kg a.i/ha after 4 weeks (reference value: 22.6 +/- 0.49 %); assay type: functional
[3] = system: Mimosa pudica; assay: Herbicidal activity against Mimosa pudica in Abelmoschus esculentus plots assessed as weed cover at 0.33 kg a.i/ha after 4 weeks (reference value: 22.6 +/- 0.49 %); assay type: functional
[4] = system: Calopogonium mucunoides; assay: Herbicidal activity against Calopogonium mucunoides in Abelmoschus esculentus plots assessed as weed cover at 0.33 kg a.i/ha after 4 weeks (reference value: 22.6 +/- 0.49 %); assay type: functional
[5] = system: Ageratum conyzoides; assay: Herbicidal activity against Ageratum conyzoides in Abelmoschus esculentus plots assessed as weed cover at 0.33 kg a.i/ha after 4 weeks (reference value: 22.6 +/- 0.49 %); assay type: functional
[6] = system: Commelina diffusa; assay: Herbicidal activity against Commelina diffusa in Abelmoschus esculentus plots assessed as weed cover at 0.66 kg a.i/ha after 2 weeks (reference value: 63.5 +/- 0.29 %); assay type: functional
[7] = system: Rottboellia cochinchinensis; assay: Herbicidal activity against Rottboellia cochinchinensis in Abelmoschus esculentus plots assessed as major weed growth at 0.33 kg a.i/ha after 2 weeks; assay type: functional
[8] = system: Cyperus rotundus; assay: Herbicidal activity against Cyperus rotundus in Corchorus olitorius plots assessed as minor weed growth at 0.66 kg a.i/ha after 2 weeks; assay type: functional
[9] = system: Synedrella nodiflora; assay: Herbicidal activity against Synedrella nodiflora in Corchorus olitorius plots assessed as minor weed growth at 1.32 kg a.i/ha after 2 weeks; assay type: functional
[10] = system: Chromolaena odorata; assay: Herbicidal activity against Chromolaena odorata in Corchorus olitorius plots assessed as minor weed growth at 1.32 kg a.i/ha after 2 weeks; assay type: functional
[11] = system: Commelina diffusa; assay: Herbicidal activity against Commelina diffusa in Abelmoschus esculentus plots assessed as weed cover at 0.66 kg a.i/ha after 7 weeks (reference value: 14.7 +/- 0.46 %); assay type: functional
[12] = system: Chromolaena odorata; assay: Herbicidal activity against Chromolaena odorata in Corchorus olitorius plots assessed as weed recovery at 1.32 kg a.i/ha after 2 weeks (reference value: 78.3 +/- 0.74 %); assay type: functional
[13] = system: Euphorbia heterophylla; assay: Herbicidal activity against Euphorbia heterophylla in Corchorus olitorius plots assessed as weed recovery at 0.99 kg a.i/ha after 2 weeks (reference value: 78.3 +/- 0.74 %); assay type: functional
[14] = system: Corchorus olitorius; assay: Phytotoxicity in Corchorus olitorius assessed as crop seedling injury at 0.99 kg a.i/ha after 2 weeks relative to untreated control; assay type: organism-based; conditions: in vivo, 336 h
[15] = system: Cyperus rotundus; assay: Herbicidal activity against Cyperus rotundus in Corchorus olitorius plots assessed as weed cover at 0.66 kg a.i/ha after 7 weeks (reference value: 1.7 +/- 0.56 %); assay type: functional
[16] = system: Abelmoschus esculentus; assay: Phytotoxicity in Abelmoschus esculentus assessed as seedling emergence at 0.66 kg a.i/ha treated to soil after 7 weeks (reference value: 95 +/- 0.05 %); assay type: organism-based; conditions: in vivo, other, 1176 h
[17] = system: Corchorus olitorius; assay: Phytotoxicity in Corchorus olitorius assessed as shoot length at 0.99 kg a.i/ha applied as solution after 7 weeks (reference value: 22.9 +/- 0.8 mm); assay type: organism-based; conditions: in vivo, other, 1176 h
[18] = system: Corchorus olitorius; assay: Phytotoxicity in Corchorus olitorius assessed as shoot length at 0.66 kg a.i/ha applied as solution after 7 weeks (reference value: 22.9 +/- 0.8 mm); assay type: organism-based; conditions: in vivo, other, 1176 h
[19] = system: Euphorbia heterophylla; assay: Herbicidal activity against Euphorbia heterophylla in Corchorus olitorius plots assessed as weed cover at 0.33 kg a.i/ha after 7 weeks (reference value: 1.7 +/- 0.56 %); assay type: functional
[20] = system: Ageratum conyzoides; assay: Herbicidal activity against Ageratum conyzoides in Corchorus olitorius plots assessed as weed cover at 0.33 kg a.i/ha after 7 weeks (reference value: 1.7 +/- 0.56 %); assay type: functional
[21] = system: Abelmoschus esculentus; assay: Phytotoxicity in Abelmoschus esculentus assessed as seedling injury at 0.66 kg a.i/ha applied as solution after 7 weeks relative to control; assay type: organism-based; conditions: in vivo, other, 1176 h
[22] = system: Euphorbia heterophylla; assay: Herbicidal activity against Euphorbia heterophylla in Corchorus olitorius plots assessed as weed cover at 1.32 kg a.i/ha after 2 weeks (reference value: 81.7 +/- 0.43 %); assay type: functional
[23] = system: Talinum fruticosum; assay: Herbicidal activity against Talinum fruticosum in Corchorus olitorius plots assessed as weed cover at 0.99 kg a.i/ha after 2 weeks (reference value: 81.7 +/- 0.43 %); assay type: functional
[24] = system: Chromolaena odorata; assay: Herbicidal activity against Chromolaena odorata in Corchorus olitorius plots assessed as weed cover at 0.99 kg a.i/ha after 2 weeks (reference value: 81.7 +/- 0.43 %); assay type: functional
[25] = system: Synedrella nodiflora; assay: Herbicidal activity against Synedrella nodiflora in Corchorus olitorius plots assessed as weed cover at 0.66 kg a.i/ha after 2 weeks (reference value: 81.7 +/- 0.43 %); assay type: functional
[26] = system: Mimosa pudica; assay: Herbicidal activity against Mimosa pudica in Abelmoschus esculentus plots assessed as minor weed growth at 0.33 kg a.i/ha after 2 weeks; assay type: functional
[27] = system: Chromolaena odorata; assay: Herbicidal activity against Chromolaena odorata in Corchorus olitorius plots assessed as weed recovery at 0.33 kg a.i/ha after 2 weeks (reference value: 78.3 +/- 0.74 %); assay type: functional
[28] = system: Chromolaena odorata; assay: Herbicidal activity against Chromolaena odorata in Corchorus olitorius plots assessed as major weed growth at 0.33 kg a.i/ha after 2 weeks; assay type: functional
[29] = system: Abelmoschus esculentus; assay: Phytotoxicity in Abelmoschus esculentus assessed as shoot length at 1.32 kg a.i/ha applied as solution after 7 weeks (reference value: 28.7 +/- 0.34 mm); assay type: organism-based; conditions: in vivo, other, 1176 h
[30] = system: Abelmoschus esculentus; assay: Phytotoxicity in Abelmoschus esculentus assessed as seed germination at 1.32 kg a.i/ha applied as solution after 7 weeks (reference value: 85.7 +/- 0.36 %); assay type: organism-based; conditions: in vivo, other, 1176 h
[31] = system: Calopogonium mucunoides; assay: Herbicidal activity against Calopogonium mucunoides in Corchorus olitorius plots assessed as weed cover at 0.33 kg a.i/ha after 4 weeks (reference value: 20.1+/- 0.57 %); assay type: functional
[32] = system: Ageratum conyzoides; assay: Herbicidal activity against Ageratum conyzoides in Abelmoschus esculentus plots assessed as weed recovery at 1.32 kg a.i/ha after 2 weeks (reference value: 60.1 +/- 0.46 %); assay type: functional
[33] = system: Ageratum conyzoides; assay: Herbicidal activity against Ageratum conyzoides in Corchorus olitorius plots assessed as weed cover at 1.32 kg a.i/ha after 4 weeks (reference value: 20.1+/- 0.57 %); assay type: functional
[34] = system: Calopogonium mucunoides; assay: Herbicidal activity against Calopogonium mucunoides in Corchorus olitorius plots assessed as weed cover at 0.99 kg a.i/ha after 4 weeks (reference value: 20.1+/- 0.57 %); assay type: functional
[35] = system: Euphorbia heterophylla; assay: Herbicidal activity against Euphorbia heterophylla in Corchorus olitorius plots assessed as weed cover at 0.33 kg a.i/ha after 4 weeks (reference value: 20.1+/- 0.57 %); assay type: functional
[36] = system: Ageratum conyzoides; assay: Herbicidal activity against Ageratum conyzoides in Corchorus olitorius plots assessed as weed cover at 0.33 kg a.i/ha after 4 weeks (reference value: 20.1+/- 0.57 %); assay type: functional

Question: Which Activity [1] does the source give for CCC(CC)Nc1c([N+](=O)[O-])cc(C)c(C)c1[N+](=O)[O-] [PENDIMETHALIN] here?
Answer: 36.2%

Question: And the Activity [2]?
Answer: 39.2%

Question: And the Activity [3]?
Answer: 53.8%

Question: What about the Activity [4] of the same compound?
Answer: 53.8%

Question: And the Activity [5]?
Answer: 53.8%

Question: And the Activity [6]?
Answer: 50.8%

Question: What about the Activity [7] of the same compound?
Answer: 31 /m2

Question: And the Activity [8]?
Answer: 1 /m2

Question: What about the Activity [9] of the same compound?
Answer: 1 /m2

Question: And the Activity [10]?
Answer: 1 /m2

Question: And the Activity [11]?
Answer: 90%

Question: And the Activity [12]?
Answer: 13.3%

Question: What about the Activity [13] of the same compound?
Answer: 21.7%

Question: What about the Activity [14] of the same compound?
Answer: 60%

Question: And the Activity [15]?
Answer: 100%

Question: What about the Activity [16] of the same compound?
Answer: 82%

Question: What about the Activity [17] of the same compound?
Answer: 5.7 mm

Question: And the Activity [18]?
Answer: 6 mm

Question: And the Activity [19]?
Answer: 100%

Question: And the Activity [20]?
Answer: 100%

Question: And the Activity [21]?
Answer: 39.2%

Question: What about the Activity [22] of the same compound?
Answer: 41.7%

Question: And the Activity [23]?
Answer: 51.7%

Question: What about the Activity [24] of the same compound?
Answer: 51.7%

Question: What about the Activity [25] of the same compound?
Answer: 51.7%

Question: And the Activity [26]?
Answer: 1 /m2

Question: And the Activity [27]?
Answer: 31.7%

Question: And the Activity [28]?
Answer: 31 /m2

Question: And the Activity [29]?
Answer: 14.6 mm

Question: What about the Activity [30] of the same compound?
Answer: 40.2%

Question: What about the Activity [31] of the same compound?
Answer: 73.3%

Question: And the Activity [32]?
Answer: 33.2%

Question: What about the Activity [33] of the same compound?
Answer: 33.3%

Question: What about the Activity [34] of the same compound?
Answer: 48.3%

Question: And the Activity [35]?
Answer: 73.3%

Question: And the Activity [36]?
Answer: 73.3%
